Assay results from patent publication EP4810065A1, “COMBINED USE OF ANTIBODY-DRUG CONJUGATE AND POLY(ADENOSINE D[…]) POLYMERASE INHIBITOR” (Jiangsu Hansoh Pharmaceutical Group Co., Ltd., priority 2023, dated 2025).

Key:
CAL-51 cells = assay: CTG growth inhibition, drug A/drug B cross-combination, 6 days; assay type: cell-based, human; settings: Drug B alone, 4.12-1000.00 nM
Description: (§1) Tumor cells in good growth condition were seeded into 96-well plates. After overnight growth onto the wall, different concentrations of the test substances were administered, with different concentrations of the two test substances arranged in a cross-combination design.
(§2) The starting concentration of test drug A was 1000 nM, which was subjected to 1:3 serial dilution to generate a total of 6 concentration levels; the starting concentration of test drug B was set at 1000 nM, which was subjected to 1:3 serial dilution to generate a total of 6 concentration levels. After the combined test substances had acted on each cell line for 6 days, the CTG method was used to detect the in vitro proliferation inhibitory effect of the combined use of the test drugs on tumor cells. Table 2-1 Drug A and drug B treatment dosing scheme
(§3) Based on the signal values measured by the microplate reader, the cell growth inhibition rate was calculated according to the following formula: Growth inhibition rate % (growth inhibition%) = [1-(measured value-minimum value mean-background value)/(maximum value mean-background value-minimum value mean)] ×100% (measured value: reading value of compound wells; minimum value: reading value of ZPE wells (reading value of wells containing cell culture medium without cells); maximum value: reading value of HPE wells (cell reading value of the DMSO treatment group); background value: cell background measured value before addition of the compound).

COV362 cells = assay: as above; assay type: cell-based, human; settings: Drug B alone, 4.12-1000.00 nM
Description: as §1, §2, §3

EN cells = assay: as above; assay type: cell-based, human; settings: Drug B alone, 4.12-1000.00 nM
Description: as §1, §2, §3

HEC-1A cells = assay: as above; assay type: cell-based, human; settings: Drug B alone, 4.12-1000.00 nM
Description: as §1, §2, §3

MX-1 cells = assay: as above; assay type: cell-based, human; settings: Drug B alone, 4.12-1000.00 nM
Description: as §1, §2, §3

OAW42 cells = assay: as above; assay type: cell-based, human; settings: Drug B alone, 4.12-1000.00 nM
Description: as §1, §2, §3

SK-OV-3 cells = assay: as above; assay type: cell-based, human; settings: Drug B alone, 4.12-1000.00 nM
Description: as §1, §2, §3

[1] = system: MX-1 human breast cancer cell mouse xenografts; assay: MX-1 human breast cancer subcutaneous xenograft model; assay type: in vivo, Balb/c nude mice
Description: Drug A was prepared by dilution with normal saline, and drug B was prepared using 0.5% HPMC; Human breast cancer MX-1 cells were cultured as a monolayer in vitro under culture conditions of DMEM/F12 medium supplemented with 10% fetal bovine serum, 100 U/mL penicillin, and 100 µg/mL streptomycin, and cultured in a cell incubator at 37°C and 5% CO2. Routine digestion treatment and passaging were carried out twice a week using trypsin-EDTA. When the cell confluence was 80%-90% and the number of cells reached the requirement, the cells were collected, counted, and inoculated.
Balb/c nude mice, female, body weight 17-25 g, were purchased from Shanghai Bi Kai Ke Yi Biotechnology Co., Ltd.
(§4) MX-1 cells were resuspended in PBS, the density after resuspension was 100×10^6/mL, the resuspended cells were mixed with an equal volume of Matrigel, inoculated subcutaneously into the right dorsal side of each mouse, 0.1 mL was inoculated into each mouse (5×10^6 cells/animal), and when the average tumor volume grew to 100-150 mm^3, grouping was carried out (D1), and drug administration was started on the day of grouping. The mice were administered by gavage (p.o.) once daily; the mice were administered by tail vein injection (i.v.) as a single administration; the administration volume was 10 mL/kg; the vehicle group was given the same volume of "vehicle"; the specific administration doses and administration regimens are shown in Table 3-1. Tumor volume was measured, mouse body weight was weighed, and data were recorded.
(§5) The experimental indicator was to examine the effect of the drug on tumor growth, and the specific indicator was the tumor growth inhibition rate TGI (%).
(§6) The tumor diameter was measured twice a week with a vernier caliper, and the calculation formula for tumor volume (V) was:V = 1/2×a×b^2 where a, b respectively indicate length and width.
(§7) Calculation of TGI (%): When there was no tumor regression, TGI (%) = [1 - (average tumor volume of a certain treatment group at the end of administration - average tumor volume of that treatment group at grouping)/(average tumor volume of the vehicle control group at the end of treatment - average tumor volume of the vehicle control group at grouping)] × 100%. When there was tumor regression, TGI (%) = [1 - (average tumor volume of a certain treatment group at the end of administration - average tumor volume of that treatment group at grouping)/average tumor volume of that treatment group at grouping] × 100%.
(§8) At the end of the experiment, upon reaching the experimental endpoint, or when the average tumor volume reached 2000 mm^3, the animals were euthanized under CO2 anesthesia, and then dissected for tumor collection and photographing.
(§9) The experimental data were analyzed and plotted using GraphPad Prism 9.4. Based on the tumor volume data of each group at different time points, Dunnett's multiple comparisons test in Two-way ANOVA was used for statistical analysis to evaluate differences among groups. […] Table 3-1. Dosing regimen of drug A in combination with drug B in the MX-1 model

[2] = system: human ovarian cancer OV0243; assay: OV0243 human ovarian cancer PDX subcutaneous xenograft model; assay type: in vivo, BALB/c nude mice; settings: for TGI (%): D27, tumor regression formula
Description: • Drug A was prepared by dilution with normal saline, and drug B was prepared using 0.5% HPMC; • OV0243 (mild cachexia), human ovarian cancer tumor tissue, was provided by Crown Bioscience (Beijing) Inc. • BALB/c nude mice, female, body weight 16-22 g, were purchased from Jiangsu Jicui Yaokang Biotechnology Co., Ltd.
OV0243 human ovarian cancer tissue was uniformly cut into tumor pieces with a diameter of 2-3 mm and inoculated subcutaneously at the right front scapular region of BALB/c nude mice, and tumor growth was regularly observed. When the average tumor volume reached 100-150 mm^3, random grouping was performed based on the tumor size and mouse body weight in accordance with Table 4-1. The tumor diameter was measured twice a week with a vernier caliper, and the calculation formula for tumor volume (V) was:V = 1/2×a×b^2 where a, b respectively indicate length and width.
as §5, §7, §8
The experimental data were analyzed and plotted using GraphPad Prism 9.4. Based on the tumor volume data of each group at different time points, Dunnett's multiple comparisons test in Two-way ANOVA was used for statistical analysis to evaluate differences among groups.
The invivoSyn method was used to analyze the synergistic effect of the combination treatment. First, based on the exponential growth model, the tumor growth rate of each mouse (eGR, exponential growth rate) and the average tumor growth rate of each group (eGRg) were calculated. Then, the relative survival rate of the treatment group and the control group was calculated by using the conditional probability formula Pr(T|C)=ST/SC, wherein SA, SB, and SAB are respectively defined as the relative survival rates of single-drug group A, single-drug group B, and the combination administration group at time point t. SA = (exp(eGRA*t))/(exp(eGRC*t)) [formula] SB = (exp(eGRB*t))/(exp(eGRC*t)) [formula] SAB = (exp(eGRAB*t))/(exp(eGRC*t)) [formula]
Based on the highest single-drug effect model (HSA, Highest Single Agent), the expected survival rate E(SAB) of the combination administration group was calculated. For the HSA model, E(SAB) = min(SA, SB). CI (Combination Index) is defined as the ratio of the observed survival rate SAB of the combination administration group to E(SAB), while the synergistic effect score (SS, Synergy Score) is defined as the percentage difference between E(SAB) and SAB. When the CI value is less than 1 or the SS value is greater than 0, the combination is considered to have a synergistic effect. p values and confidence intervals were calculated using the stratified bootstrap method (Stratified bootstrap). Table 4-1. Dosing regimen of drug A in combination with drug B in the OV0243 model

[3] = system: RL95-2 endometrial cancer cell mouse xenografts; assay: RL95-2 human endometrial cancer subcutaneous xenograft model; assay type: in vivo, nude mice
Description: Drug A was prepared by dilution with normal saline, and drug B was prepared using 0.5% HPMC; Human endometrial cancer cells RL95-2 were cultured in vitro in a cell incubator at 37°C and 5% CO2. Routine digestion treatment and passaging were carried out twice a week using trypsin-EDTA. When the cell confluence was 80%-90% and the number of cells reached the requirement, the cells were collected, counted, and inoculated.
as §4, with “RL95-2” for “MX-1”, “100 × 10^6/mL,” for “100×10^6/mL,”, “(5 × 10^6” for “(5×10^6”, “and” for “and drug”, “5-1.” for “3-1.”
as §5, §6, §7, §8
as §9, with “5-1.” for “3-1.”, “RL95-2” for “MX-1”

[4] = D0 (at grouping), Drug B 1 mg/kg p.o. QD*28 times
[5] = D28, Drug B 1 mg/kg p.o. QD*28 times

CCc1cc2ncc(CN3CC=C(c4ccc(C(=O)NC)nc4)CC3)cc2[nH]c1=O [Drug B, 1'-((7-ethyl-6-oxo-5,6-dihydro-1,5-naphthyridin-3-yl)methyl)-N-methyl-1',2',3',6'-tetrahydro-[3,4'-bipyridine]-6-carboxamide]
Growth inhibition rate (CAL-51 cells; drug B 4.12 nM): 9.89%
Growth inhibition rate (CAL-51 cells; drug B 12.35 nM): 8.42%
Growth inhibition rate (CAL-51 cells; drug B 37.04 nM): 12.34%
Growth inhibition rate (CAL-51 cells; drug B 111.11 nM): 11.19%
Growth inhibition rate (CAL-51 cells; drug B 333.33 nM): 15.02%
Growth inhibition rate (COV362 cells; drug B 4.12 nM): 22.59%
Growth inhibition rate (COV362 cells; drug B 12.35 nM): 22.45%
Growth inhibition rate (COV362 cells; drug B 37.04 nM): 21.18%
Growth inhibition rate (COV362 cells; drug B 111.11 nM): 25.95%
Growth inhibition rate (COV362 cells; drug B 333.33 nM): 23.74%
Growth inhibition rate (EN cells; drug B 4.12 nM): 31.13%
Growth inhibition rate (EN cells; drug B 12.35 nM): 22.59%
Growth inhibition rate (EN cells; drug B 37.04 nM): 24.15%
Growth inhibition rate (EN cells; drug B 111.11 nM): 27.18%
Growth inhibition rate (EN cells; drug B 333.33 nM): 24.54%
Growth inhibition rate (HEC-1A cells; drug B 4.12 nM): 3.73%
Growth inhibition rate (HEC-1A cells; drug B 12.35 nM): 4.25%
Growth inhibition rate (HEC-1A cells; drug B 37.04 nM): 5.84%
Growth inhibition rate (HEC-1A cells; drug B 111.11 nM): 9.01%
Growth inhibition rate (HEC-1A cells; drug B 333.33 nM): 7.40%
Growth inhibition rate (MX-1 cells; drug B 4.12 nM): 33.15%
Growth inhibition rate (MX-1 cells; drug B 12.35 nM): 31.24%
Growth inhibition rate (MX-1 cells; drug B 37.04 nM): 33.85%
Growth inhibition rate (MX-1 cells; drug B 111.11 nM): 40.59%
Growth inhibition rate (MX-1 cells; drug B 333.33 nM): 46.92%
Growth inhibition rate (OAW42 cells; drug B 4.12 nM): 6.29%
Growth inhibition rate (OAW42 cells; drug B 12.35 nM): 4.07%
Growth inhibition rate (OAW42 cells; drug B 37.04 nM): 6.30%
Growth inhibition rate (OAW42 cells; drug B 111.11 nM): 7.53%
Growth inhibition rate (OAW42 cells; drug B 333.33 nM): 12.46%
Growth inhibition rate (SK-OV-3 cells; drug B 4.12 nM): 3.96%
Growth inhibition rate (SK-OV-3 cells; drug B 12.35 nM): 2.49%
Growth inhibition rate (SK-OV-3 cells; drug B 37.04 nM): 2.34%
Growth inhibition rate (SK-OV-3 cells; drug B 111.11 nM): 6.14%
Growth inhibition rate (SK-OV-3 cells; drug B 333.33 nM): 9.22%
Average tumor volume (mm^3) ± SEM ([1]; D0 (at grouping), Drug B 0.3 mg/kg): 148±7 mm^3
Average tumor volume (mm^3) ± SEM ([1]; D28, Drug B 0.3 mg/kg): 199±20 mm^3
TGI (%) ([1]; D28, Drug B 0.3 mg/kg): 97.25%
Partial regression ([1]; D28, Drug B 0.3 mg/kg, animals with partial regression/animals in group): 2/8
tolerability (body weight, death, abnormal symptoms) ([1]; MX-1 tumor-bearing mice): could well tolerate
Average tumor volume (mm^3) ± SEM ([2]; D0 (at grouping), Drug B 0.1 mg/kg p.o. QD*28 times): 137±2 mm^3
Average tumor volume (mm^3) ± SEM [2, 4]: 138±2 mm^3
TGI (%) ([2]; Drug B 0.1 mg/kg p.o. QD*28 times): 129.84%
TGI (%) ([2]; Drug B 1 mg/kg p.o. QD*28 times): 191.94%
Average tumor volume (mm^3) ± SEM ([2]; Day 27, Drug B 0.1 mg/kg p.o. QD*28 times): 96±14 mm^3
Average tumor volume (mm^3) ± SEM ([2]; Day 27, Drug B 1 mg/kg p.o. QD*28 times): 11±6 mm^3
Average tumor volume (mm^3) ± SEM ([2]; Day 55, Drug B 0.1 mg/kg p.o. QD*28 times): 3±3 mm^3
Average tumor volume (mm^3) ± SEM ([2]; Day 55, Drug B 1 mg/kg p.o. QD*28 times): 0±0 mm^3
Average tumor volume (mm^3) ± SEM ([2]; Day 83 (day 56 after drug withdrawal), Drug B 0.1 mg/kg p.o. QD*28 times): 78±27 mm^3
Average tumor volume (mm^3) ± SEM ([2]; Day 83 (day 56 after drug withdrawal), Drug B 1 mg/kg p.o. QD*28 times): 50±23 mm^3
tumor growth inhibition, monotherapy ([2]; OV0243 model, conclusion): significantly inhibit the growth of xenograft tumors in nude mice
tolerability ([2]; OV0243 tumor-bearing mice): could well tolerate
body weight decrease of 1 animal ([2]; drug B 0.1 mg/kg, by day 51, euthanasia): greater than 20%
body weight decrease of 1 animal ([2]; drug B 0.1 mg/kg, day 23): 17.39%
animals with partial tumor regression ([2]; drug B 0.1 mg/kg, day 27): 5/6
average body weight change rate ([2]; drug B 0.1 mg/kg, day 27): 2.18%
animals with complete tumor regression ([2]; drug B 1 mg/kg, day 27): 3/6
animals with partial tumor regression ([2]; drug B 1 mg/kg, day 27): 3/6
average body weight change rate ([2]; drug B 1 mg/kg, day 27): 3.75%
Average tumor volume (mm^3) + SEM [3, 4]: 134+7 mm^3
Average tumor volume (mm^3) + SEM [3, 5]: 1097+109 mm^3
T/C (%) [3, 5]: 95.50%
TGI (%) [3, 5]: 5.08%
tolerability ([3]; RL95-2 tumor-bearing mice): could well tolerate
tumor growth inhibition ([3]; RL95-2 xenograft mouse model): had no obvious inhibitory effect on tumor growth
